Assay results as given in patent publication US10399966B2, “Compounds for treatment of trypanosomes and neurological pathogens and uses thereof” (The University of North Carolina at Chapel Hill, priority 2016, dated 2019).
“And” between values parts separate entries of the source, which are not always exact repeats. Identical values can stand only once. Like-named read-outs stand apart in the source and are kept apart here.

How the values were obtained:
[1] = Metabolic stability in human liver microsomes; type: in vitro ADME
Experimental: Metabolic stability was evaluated using liver microsomes derived from mouse and human sources. Microsomal incubations were carried out according to a protocol described previously (Wang et al., Antimicrob. Agents Chemother. 54:2507 (2010)) with modifications. Briefly, substrate stock solutions were prepared in DMSO and DMSO content was kept at 0.5% (v/v) in final incubations. Incubation mixtures ([…]), liver microsomes (0.5 mg/mL) from mouse (pool of 1000, CD-1 male mouse) or human (pool of 50, mixed gender) (XenoTech LLC, Lenexa, Kans.) in a phosphate buffer (100 mM, pH 7.4) containing 3.3 mM MgCl2. After a 5-minute pre-equilibration period at 37° C., reactions (in triplicate) were initiated by adding the NADPH cofactor (1 mM). For NADPH-independent reactions, the cofactor was replaced with water. Aliquots (10 μl) of the reaction mixtures were removed at 0, 15, 30, and 60 minutes and individually mixed with 200 μL of ice-cold acetonitrile containing internal standard. The mixtures were vortex-mixed, and precipitated protein was removed by centrifugation at 2,250×g for 15 min. The supernatant fractions were dried using a 96-well microplate evaporator (Apricot Designs Inc., Covina, Calif.) under N2 at 50° C. and reconstituted with 100 μL 50% methanol containing 0.1% trifluoroacetic acid before UPLC-MS/MS analysis. In vitro half-life (t1/2) was obtained by analyzing the substrate concentration vs. incubation time curve using the one-phase exponential decay model (GraphPad Prism® 5.0, San Diego, Calif.).

[2] = Mouse oral pharmacokinetics; type: in vivo
Experimental: […] Experiments were performed with groups of three mice per compound. Plasma was separated and extracted with acetonitrile for measurements of compound concentrations by liquid chromatography/tandem mass spectrometry.

[3] = system: Trypanosoma cruzi; experiment: Efficacy against T. cruzi in vitro; type: cell-based
[4] = system: T. b. brucei TREU667; experiment: Mouse efficacy model of chronic T. brucei infection; type: in vivo; conditions: 50 mg/kg po b.i.d. x 10 days from day 21, no detectable parasitemia through 180 days post-infection, 50 mg/kg
Experimental: For chronic efficacy, experiments were done in compliance with the University of Washington IACUC approved protocol. According to published procedures, groups of 5 mice were infected with 1×10^4 T. b. brucei (strain TREU667) at day 0 to establish a chronic infection. Treatment began on day 21 post-infection, and mice received 50 mg/kg test compound orally b.i.d. for 10 d (total of 20 doses) in a 200 μL volume of a vehicle composed of Phosal 53 MCT (60%), PEG400 (30%) and EtOH (10%). A control group received vehicle with no compound and another control group received a single intraperitoneal dose of diminazene aceturate at 10 mg/kg in water on day 21. […] Post dosing, parasitemia was monitored via microscopic examination of tail blood slides until 180 days post-infection. Mice were removed from the experiment once parasites were detected in the blood.
In a model of the chronic phase of HAT, compound 1 was administered to five mice infected with T. b. brucei TREU667 at 50 mg/kg/po b.i.d.×10 days, beginning 21 days post-infection. […] Efficacy PK blood samples were collected from three of the five mice prior to dose 15, and at 1 h and 6 h post-dose. […] Compound 1 attained 5/5 cures as determined by the absence of detectable parasitemia in any of the treated mice through 180 days post-infection (FIG. 2). […]

[5] = Rat pharmacokinetics, oral administration; type: in vivo; design: AUC(0-inf): unit not given here; conditions: 20 mg/kg; for AUC(0-inf) / Cmax / Tmax: rat, in vivo, po
Experimental: The pharmacokinetics of compound 1 was tested in rats after intravenous and oral administration. Two rats were administered 5 mg/kg compound 1 intravenously in a vehicle consisting of 7% Tween 80, 3% EtOH, 5% DMSO in saline. Two rats were administered 20 mg/kg compound 1 orally in a vehicle consisting of 5% DMSO, 0.5% Tween 80, 1% methylcellulose in water. The results are shown in Table 4 and FIGS. 3A-3B and 4A-4B.

[6] = Efficacy PK blood samples, chronic model; type: in vivo, mouse; conditions: 50 mg/kg po b.i.d.
Experimental: In a model of the chronic phase of HAT, compound 1 was administered to five mice infected with T. b. brucei TREU667 at 50 mg/kg/po b.i.d.×10 days, beginning 21 days post-infection. […] Efficacy PK blood samples were collected from three of the five mice prior to dose 15, and at 1 h and 6 h post-dose. Average plasma levels of the test compound were 15.8±8.7 μM (pre-dose), […] (1 h), and 26.7±7.1 μM (6 h). Compound 1 attained 5/5 cures as determined by the absence of detectable parasitemia in any of the treated mice through 180 days post-infection (FIG. 2). No mice receiving vehicle alone had spontaneous cures.

[7] = system: human hepatocytes HepG2; experiment: Cytotoxicity against HepG2 cells
[8] = system: T. b. rhodesiense STIB900; experiment: Mouse efficacy model of acute T. brucei infection; type: in vivo; conditions: 50 mg/kg po b.i.d. x 4 days from day 2, no detectable parasitemia 60 days post-infection
Experimental: For acute efficacy studies in mice, experiments were carried out using the standard operating procedure used by WHO screening centers and done in compliance with the University of Washington Institutional Animal Care and Use Committee (IACUC) approved protocol. […] The test compound was administered by oral gavage at 50 mg/kg every 12 h from day 2 to day 5, for a total of 8 doses in a 200 μL volume of a vehicle consisting of DMSO (5%), Tween 80 (7%), and EtOH (3%) in physiological saline (0.9%) solution. Parasitemia was monitored via microscopic analysis of tail blood for 60 d post-infection, or until parasites were detected. Mice were removed from the experiment once parasites were detected in the blood. […] Efficacy PK blood samples were collected from three of the five mice prior to dose 7, and at 1 h and 6 h post-dose.

## O=C(Nc1ccc2sc(-c3ccc(F)c(F)c3)nc2c1)N1CC[C@H](F)C1 [Compound 1, (S)-2-(3,4-Difluorophenyl)-5-(3-fluoro-N-pyrrolidylamido)benzothiazole]
[1]; Table 12, after 60 min (where t1/2 > 60 min)
  Human microsomes, percentage of compound remaining: 53%
[1]; both sexes, human, liver microsomes, pH 7.4, Table 12, 37° C., NADPH (1 mM), microsomes 0.5 mg/mL, test compounds 1.5 μM, read-out: Human microsomes t1/2
  half-life at 1.5 μM: > 1 h
[1]; both sexes, liver microsomes, pH 7.4, human microsomes, read-out: microsomal half-life
  half-life at 3 μM: 1 h
[2]; Table 5
  Mouse oral PK Tlast: 1440 min
[2]; Table 5, n = 3
  Mouse oral PK Average AUC: 13217 ± 2156 (n = 3) min * μmol/L
[2]; Table 13, mice, single 50 mg/kg oral gavage, vehicle Phosal 53 MCT(60%), PEG400 (30%), EtOH (10%)
  AUC0 min-∞: 14673 ± 2833 µM·min
[2]; Table 13, mice, single 50 mg/kg oral gavage, vehicle Phosal 53 MCT(60%), PEG400 (30%), EtOH (10%), read-out: Cmax
  Cmax: 18.6 ± 5.54 µM
[2]; Table 13, mice, single 50 mg/kg oral gavage, vehicle Tween 80 (7%), EtOH (3%), DMSO (5%) in 0.9% NaCl, ± SEM of 3 mice, 50 mg/kg, read-out: Cmax
  Cmax: 23.3 µM
[2]; Table 13, mice, single 50 mg/kg oral gavage, vehicle methylcellulose cP 400 (0.5%), Tween 80 (0.5%) in water
  AUC0 min-∞: 6352 ± 469 µM·min
[2]; Table 13, mice, single 50 mg/kg oral gavage, vehicle methylcellulose cP 400 (0.5%), Tween 80 (0.5%) in water, read-out: Cmax
  Cmax: 8.54 ± 0.41 µM
[2]; mouse oral 50 mg/kg, 24 h time point
  percent of the Cmax remaining: Less than 1%
[2]; mouse, plasma, po, 50 mg/kg, Table 5, n = 3, read-out: Mouse oral PK Average Cmax
  Cmax: 23.3 ± 5.22 µM
[2]; mouse, plasma, po, 50 mg/kg, Table 5, read-out: Mouse oral PK Tmax (converted)
  Tmax: 2 h
[3]; Table 1, Trypanosoma cruzi, read-out: EC50
  EC50: 118 nM
[3]; Table 1, Trypanosoma cruzi, read-out: EC90
  EC90: 178 nM
[3]; Trypanosoma cruzi, Table 6, read-out: T. cruzi EC50
  EC50: 58.5 nM
[3]; Trypanosoma cruzi, Table 10, read-out: T.cruzi EC50
  EC50: 118 nM
[3]; Trypanosoma cruzi, Table 10, read-out: T.cruzi EC90
  EC90: 178 nM
[4]
  mice cured (cures): 5 of 5 and 5/5
[5]; Mean ± SEM (n = 2)
  Apparent BA: 116.85%
  AUC(0-inf): 6270
  Cmax: 8.92 µM
  Tmax: 7 h
[5]; Rat 3
  Apparent BA: 110.29%
  AUC(0-inf): 5770
  Cmax: 7.31 µM
  Tmax: 8 h
[5]; Rat 4
  Apparent BA: 123.40%
  AUC(0-inf): 6770
  Cmax: 10.5 µM
  Tmax: 6 h
[6]; 1 h post dose 15
  Average plasma levels: 23.1 ± 603 µM
[6]; 6 h post dose 15
  Average plasma levels: 26.7 ± 7.1 µM
[6]; prior to dose 15 (pre-dose)
  Average plasma levels: 15.8 ± 8.7 µM
[7]
  toxicity to the HepG2 cells (in words): no detectable toxicity
[7]; Homo sapiens, HepG2, read-out: HepG2 EC50
  EC50: > 50000 nM
[7]; read-out: HepG2 EC90, concentration required to inhibit growth by 90%, human hepatocytes
  EC90: > 50000 nM
[8]
  mice cured (cures): 5 of 5 and 5/5
